Measured values from patent US11236081B2, “Crystalline salts of corydalmine” (priority 2018, dated 2022).
Values joined by “and” are separate entries in the source; they are usually repeats but may differ in a detail not shown here. Equal values may be shown once.

Experiments:
[1] = Pharmacokinetic study: plasma concentration and plasma PK parameters after IV/PO dosing (LC-MS/MS, WinNonlin); assay type: in vivo, Male SD Rat; settings: for AUCInf / AUClast / AUClast/D / AUC—% Extrap_obs / Cmax / MRTInf_obs / T1/2 / Tmax / AUCInf, Mean / AUClast, Mean / AUClast/D, Mean / AUC—% Extrap_obs, Mean / Cmax, Mean / MRTInf_obs, Mean / T1/2, Mean / Tmax, Mean: plasma
Description: Pharmacokinetic and Brain Penetration Study
Dose formulation processing during dosing: The dose formulations will be kept at room temperature.
Concentrations of Test Article in the plasma samples will be analyzed using a LC-MS/MS method.
WinNonlin (Phoenix™, version 6.1) or other similar software will be used for pharmacokinetic calculations. The following pharmacokinetic parameters will be calculated, whenever possible from the plasma concentration versus time data:
IV administration: T1/2, C0, AUClast, AUCinf, MRTinf, Cl, Vss, Number of Points for Regression.
PO administration: T1/2, Cmax, Tmax, MRTinf, AUCinf, AUClast, F %, Number of Points for Regression.
The pharmacokinetic data will be described using descriptive statistics such as mean, standard deviation.

[2] = Solubility studies in water at 2 hours; assay type: physicochemical
[3] = male SD rat, PO 10 mg/kg (equal to freebase), individual rats, vehicle 20% HP-β-CD in water (POA, freebase) or water (salts), 10 mg/kg
[4] = male SD rat, PO 10 mg/kg (equal to freebase), mean n=3, vehicle 20% HP-β-CD in water (POA, freebase) or water (salts)
[5] = PO (group POF), 10 mg/kg, individual rats R49, R50, R51, 10 mg/kg
[6] = PO (group POF), 10 mg/kg, mean of R49-R51

In the case of `COc1cc2c(cc1OC)C1Cc3ccc(O)c(OC)c3CN1CC2.CS(=O)(=O)O` (stereo not drawn) [TLZ-16 mesylate], the F ([1]; male SD rat, PO 10 mg/kg (equal to freebase) vs IV 3 mg/kg freebase, individual rats, vehicle 20% HP-β-CD in water (POA, freebase) or water (salts)) is reported as 39.9% and 42.6% and 38.1%, the “F, Mean” value ([1]; male SD rat, PO 10 mg/kg (equal to freebase) vs IV 3 mg/kg freebase, mean n=3, vehicle 20% HP-β-CD in water (POA, freebase) or water (salts)) is reported as 40.2% and the concentration in plasma ([1]; male SD rat, PO 10 mg/kg (equal to freebase), 0 h, individual rats, vehicle 20% HP-β-CD in water (POA, freebase) or water (salts)) is reported as “BLOQ (BLOQ = below limit of quantitation (0.2 ng/mL))”. The concentration in plasma ([1]; male SD rat, PO 10 mg/kg (equal to freebase), 0.25 h, individual rats, vehicle 20% HP-β-CD in water (POA, freebase) or water (salts), 10 mg/kg) was 227 ng/mL and 253 ng/mL and 256 ng/mL, the “concentration in plasma, Mean” value ([1]; male SD rat, PO 10 mg/kg (equal to freebase), 0.25 h, mean n=3, vehicle 20% HP-β-CD in water (POA, freebase) or water (salts)) was 245 ng/mL and the concentration in plasma ([1]; male SD rat, PO 10 mg/kg (equal to freebase), 0.5 h, individual rats, vehicle 20% HP-β-CD in water (POA, freebase) or water (salts), 10 mg/kg) was 192 ng/mL and 233 ng/mL and 338 ng/mL. The “concentration in plasma, Mean” value ([1]; male SD rat, PO 10 mg/kg (equal to freebase), 0.5 h, mean n=3, vehicle 20% HP-β-CD in water (POA, freebase) or water (salts)) was 254 ng/mL, the concentration in plasma ([1]; male SD rat, PO 10 mg/kg (equal to freebase), 1 h, individual rats, vehicle 20% HP-β-CD in water (POA, freebase) or water (salts), 10 mg/kg) was 162 ng/mL and 197 ng/mL and 208 ng/mL and the “concentration in plasma, Mean” value ([1]; male SD rat, PO 10 mg/kg (equal to freebase), 1 h, mean n=3, vehicle 20% HP-β-CD in water (POA, freebase) or water (salts)) was 189 ng/mL. The concentration in plasma ([1]; male SD rat, PO 10 mg/kg (equal to freebase), 2 h, individual rats, vehicle 20% HP-β-CD in water (POA, freebase) or water (salts), 10 mg/kg) was 211 ng/mL and 180 ng/mL and 271 ng/mL, the “concentration in plasma, Mean” value ([1]; male SD rat, PO 10 mg/kg (equal to freebase), 2 h, mean n=3, vehicle 20% HP-β-CD in water (POA, freebase) or water (salts)) was 221 ng/mL and the concentration in plasma ([1]; male SD rat, PO 10 mg/kg (equal to freebase), 4 h, individual rats, vehicle 20% HP-β-CD in water (POA, freebase) or water (salts), 10 mg/kg) was 208 ng/mL and 155 ng/mL and 122 ng/mL. The “concentration in plasma, Mean” value ([1]; male SD rat, PO 10 mg/kg (equal to freebase), 4 h, mean n=3, vehicle 20% HP-β-CD in water (POA, freebase) or water (salts)) was 162 ng/mL, the concentration in plasma ([1]; male SD rat, PO 10 mg/kg (equal to freebase), 8 h, individual rats, vehicle 20% HP-β-CD in water (POA, freebase) or water (salts), 10 mg/kg) was 70.3 ng/mL and 40.7 ng/mL and 35.2 ng/mL and the “concentration in plasma, Mean” value ([1]; male SD rat, PO 10 mg/kg (equal to freebase), 8 h, mean n=3, vehicle 20% HP-β-CD in water (POA, freebase) or water (salts)) was 48.7 ng/mL. For the same compound, the concentration in plasma ([1]; male SD rat, PO 10 mg/kg (equal to freebase), 24 h, individual rats, vehicle 20% HP-β-CD in water (POA, freebase) or water (salts), 10 mg/kg) was “BLOQ (BLOQ = below limit of quantitation (0.2 ng/mL)) (2×) and 0.454 ng/mL”, the AUCInf [1, 3] was 1690 ng·h/mL and 1446 ng·h/mL and 1294 ng·h/mL and the AUClast [1, 3] was 1331 ng·h/mL and 1444 ng·h/mL and 1190 ng·h/mL. The AUClast/D [1, 3] was 133 kg·ng·h/mL/mg and 144 kg·ng·h/mL/mg and 119 kg·ng·h/mL/mg, the “AUC—% Extrap_obs” value [1, 3] was 21.2% and 0.109% and 8.09% and the Cmax [1, 3] was 227 ng/mL and 253 ng/mL and 338 ng/mL. The MRTInf_obs [1, 3] was 5.40 h and 4.15 h and 3.26 h, the T1/2 [1, 3] was 3.54 h and 2.40 h and 2.06 h and the Tmax [1, 3] was 0.25 h (2×) and 0.5 h. For the same compound, the “AUCInf, Mean” value [1, 4] was 1477 ng·h/mL, the “AUClast, Mean” value [1, 4] was 1322 ng·h/mL and the AUClast/D, Mean [1, 4] was 132 kg·ng·h/mL/mg. The “AUC—% Extrap_obs, Mean” value [1, 4] was 9.82%, the “Cmax, Mean” value [1, 4] was 273 ng/mL and the “MRTInf_obs, Mean” value [1, 4] was 4.27 h. The “T1/2, Mean” value [1, 4] was 2.67 h, the “Tmax, Mean” value [1, 4] was 0.333 h and the solubility in water [2] was “approximately 20 mg/mL”.

With `COc1cc2c(cc1OC)[C@@H]1Cc3ccc(O)c(OC)c3CN1CC2.O=S(=O)(O)O` [TLZ-16 sulfate] the F [1, 5] was 24.8% and 31.7% and 44.5%, the “F, Mean” value [1, 6] was 33.7% and the “concentration in plasma, Conc.” value ([1]; PO (group POF), 10 mg/kg, time 0 h, individual rats R49, R50, R51) was “BLOQ (BLOQ = below limit of quantitation (0.2 ng/mL))”. For the same compound, the “concentration in plasma, Conc.” value ([1]; PO (group POF), 10 mg/kg, time 0.25 h, individual rats R49, R50, R51, 10 mg/kg) was 231 ng/mL and 226 ng/mL and 349 ng/mL, the “concentration in plasma, Mean” value ([1]; PO (group POF), 10 mg/kg, time 0.25 h, mean of R49-R51) was 269 ng/mL and the “concentration in plasma, Conc.” value ([1]; PO (group POF), 10 mg/kg, time 0.5 h, individual rats R49, R50, R51, 10 mg/kg) was 229 ng/mL and 223 ng/mL and 401 ng/mL. The “concentration in plasma, Mean” value ([1]; PO (group POF), 10 mg/kg, time 0.5 h, mean of R49-R51) was 284 ng/mL, the “concentration in plasma, Conc.” value ([1]; PO (group POF), 10 mg/kg, time 1 h, individual rats R49, R50, R51, 10 mg/kg) was 117 ng/mL and 161 ng/mL and 240 ng/mL and the “concentration in plasma, Mean” value ([1]; PO (group POF), 10 mg/kg, time 1 h, mean of R49-R51) was 173 ng/mL. For the same compound, the “concentration in plasma, Conc.” value ([1]; PO (group POF), 10 mg/kg, time 2 h, individual rats R49, R50, R51, 10 mg/kg) was 119 ng/mL and 152 ng/mL and 189 ng/mL, the “concentration in plasma, Mean” value ([1]; PO (group POF), 10 mg/kg, time 2 h, mean of R49-R51) was 153 ng/mL and the “concentration in plasma, Conc.” value ([1]; PO (group POF), 10 mg/kg, time 4 h, individual rats R49, R50, R51, 10 mg/kg) was 103 ng/mL and 110 ng/mL and 203 ng/mL. The “concentration in plasma, Mean” value ([1]; PO (group POF), 10 mg/kg, time 4 h, mean of R49-R51) was 139 ng/mL, the “concentration in plasma, Conc.” value ([1]; PO (group POF), 10 mg/kg, time 8 h, individual rats R49, R50, R51, 10 mg/kg) was 22.4 ng/mL and 39.9 ng/mL and 87.8 ng/mL and the “concentration in plasma, Mean” value ([1]; PO (group POF), 10 mg/kg, time 8 h, mean of R49-R51) was 50.0 ng/mL. The “concentration in plasma, Conc.” value ([1]; PO (group POF), 10 mg/kg, time 24 h, individual rats R49, R50, R51) was “BLOQ (BLOQ = below limit of quantitation (0.2 ng/mL))”, the AUCInf [1, 5] was 840 ng·h/mL and 1074 ng·h/mL and 2115 ng·h/mL and the AUClast [1, 5] was 764 ng·h/mL and 899 ng·h/mL and 1486 ng·h/mL. For the same compound, the AUClast/D [1, 5] was 76.4 kg·ng·h/mL/mg and 89.9 kg·ng·h/mL/mg and 149 kg·ng·h/mL/mg, the “AUC—% Extrap_obs” value [1, 5] was 9.10% and 16.3% and 29.8% and the Cmax [1, 5] was 231 ng/mL and 226 ng/mL and 401 ng/mL. The MRTInf_obs [1, 5] was 3.53 h and 4.44 h and 6.73 h, the T1/2 [1, 5] was 2.37 h and 3.05 h and 4.97 h and the Tmax [1, 5] was 0.25 h (2×) and 0.5 h. For the same compound, the “AUCInf, Mean” value [1, 6] was 1343 ng·h/mL, the “AUClast, Mean” value [1, 6] was 1049 ng·h/mL and the AUClast/D, Mean [1, 6] was 105 kg·ng·h/mL/mg. For the same compound, the “AUC—% Extrap_obs, Mean” value [1, 6] was 18.4%, the “Cmax, Mean” value [1, 6] was 286 ng/mL and the “MRTInf_obs, Mean” value [1, 6] was 4.90 h. For the same compound, the “T1/2, Mean” value [1, 6] was 3.46 h, the “Tmax, Mean” value [1, 6] was 0.333 h and the solubility in water [2] was “approximately 20 mg/mL”.
